Laboratory results from patent publication US10131652B2, “Pyrimidinyloxy benzene derivatives as herbicides” (E. I. DU PONT DE NEMOURS AND COMPANY, priority 2014, dated 2018).
Like-named read-outs stand apart in the source and are kept apart here.

How the values were obtained:
Assay type in all cases: in vivo
[1] = system: waterhemp (common waterhemp, Amaranthus rudis); assay: Test D pre-/postemergence plant response; details: Amaranthus tuberculatus, pre-emergence, Preemergence, scale 0 to 100 (0 no effect, 100 complete control), read-out: Plant response rating, Waterhemp
How it was run: (§1)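 Plants are held in a greenhouse 13 to 15 days after spraying, then injury is rated by eye relative to controls on a 0 to 100 scale. Treatments are preemergence on freshly sown loam/sand pots or postemergence at 1- to 4-leaf stage in peat-based medium; surfactant-containing solvent formulation.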

[2] = system: corn (Zea mays); assay: Test D pre-/postemergence plant response; details: Zea mays; for Corn plant response rating (crop injury, 0 = no effect, 100 = complete kill) at 62 g/ha: 62 g ai/ha
How it was run: as §1

[3] = system: oilseed rape (Brassica napus); assay: Test D pre-/postemergence plant response; details: Brassica napus; for plant injury at 31 g/ha: 31 g ai/ha; for plant injury at 62 g/ha: 62 g ai/ha; for plant injury at 125 g/ha: 125 g ai/ha
How it was run: as §1

[4] = system: ragweed (common ragweed, Ambrosia elatior); assay: Test D pre-/postemergence plant response; details: Ambrosia artemisiifolia; for pest or weed control at 31 g/ha: 31 g ai/ha; for pest or weed control at 62 g/ha: 62 g ai/ha; for pest or weed control at 125 g/ha: 125 g ai/ha
How it was run: as §1

[5] = system: giant foxtail (Setaria faberii); assay: Test D pre-/postemergence plant response; details: Setaria faberi; for pest or weed control at 16 g/ha: 16 g ai/ha; for pest or weed control at 31 g/ha: 31 g ai/ha; for pest or weed control at 62 g/ha: 62 g ai/ha; for pest or weed control at 125 g/ha: 125 g ai/ha
How it was run: as §1

[6] = system: morningglory (Ipomoea coccinea); assay: Test D pre-/postemergence plant response; details: Ipomoea; for pest or weed control at 31 g/ha: 31 g ai/ha; for pest or weed control at 62 g/ha: 62 g ai/ha; for pest or weed control at 125 g/ha: 125 g ai/ha
How it was run: as §1

[7] = system: galium (catchweed bedstraw, Galium aparine); assay: Test B postemergence plant response
How it was run: (§2)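 Plants grown in pots of loam soil–sand blend were sprayed postemergence with formulated test chemicals at 2 to 10 cm height, one- to two-leaf stage. After about 10 days in a greenhouse, injury was visually rated against untreated controls on a 0 to 100 scale (0 no effect, 100 complete control).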

[8] = system: blackgrass (Alopecurus myosuroides); assay: Test B postemergence plant response
How it was run: as §2

[9] = post-emergence, Postemergence, scale 0 to 100, 0 no effect, 100 complete control, read-out: Plant response rating, Oilseed Rape
[10] = pre-emergence, Preemergence, scale 0 to 100 (0 no effect, 100 complete control), read-out: Plant response rating, Oilseed Rape
[11] = post-emergence, Postemergence, scale 0 to 100, 0 no effect, 100 complete control, read-out: Plant response rating, Ragweed
[12] = pre-emergence, Preemergence, scale 0 to 100 (0 no effect, 100 complete control), read-out: Plant response rating, Ragweed
[13] = post-emergence, Postemergence, scale 0 to 100 (0 no effect, 100 complete control), read-out: Foxtail, Giant plant response rating
[14] = post-emergence, Postemergence, scale 0 to 100, 0 no effect, 100 complete control, read-out: Plant response rating, Foxtail, Giant
[15] = pre-emergence, Preemergence, scale 0 to 100 (0 no effect, 100 complete control), read-out: Plant response rating, Foxtail, Giant
[16] = post-emergence, Postemergence, scale 0 to 100, 0 no effect, 100 complete control, read-out: Plant response rating, Morningglory
[17] = pre-emergence, Preemergence, scale 0 to 100 (0 no effect, 100 complete control), read-out: Plant response rating, Morningglory
[18] = 125 g ai/ha, postemergence, 0 to 100 scale, 0 no effect, 100 complete control
[19] = Postemergence, 500 g ai/ha, 0 to 100 scale (0 no effect, 100 complete control)

Fc1cccc(Oc2ncc(Cl)cn2)c1-c1cc(C(F)(F)F)on1 [Compound 168, 5-chloro-2-[2-[5-(trifluoromethyl)-3-isoxazolyl]-3-fluorophenoxy]pyrimidine]
pest or weed control at 16 g/ha ([1]; 16 g ai/ha): 100% | pest or weed control at 31 g/ha ([1]; 31 g ai/ha): 100% | pest or weed control at 62 g/ha ([1]; 62 g ai/ha): 100% | plant injury at 16 g/ha ([2]; post-emergence, Postemergence, 16 g ai/ha, scale 0 to 100 (0 no effect, 100 complete control), read-out: Corn plant response rating): 5% | plant injury at 31 g/ha ([2]; post-emergence, Postemergence, 31 g ai/ha, scale 0 to 100 (0 no effect, 100 complete control), read-out: Corn plant response rating): 5% | Corn plant response rating (crop injury, 0 = no effect, 100 = complete kill) at 62 g/ha ([2]; post-emergence, Postemergence, scale 0 to 100, 0 no effect, 100 complete control): 10% | Corn plant response rating (crop injury, 0 = no effect, 100 = complete kill) at 125 g/ha ([2]; post-emergence, Postemergence, 125 g ai/ha, scale 0 to 100, 0 no effect, 100 complete control): 20% | plant injury at 125 g/ha ([2]; pre-emergence, Preemergence, 125 g ai/ha, read-out: Plant response rating (scale 0 to 100), Corn): 55% | Corn plant response rating (crop injury, 0 = no effect, 100 = complete kill) at 16 g/ha ([2]; pre-emergence, Preemergence, 16 g ai/ha, scale 0 to 100 (0 no effect, 100 complete control)): 0% | Corn plant response rating (crop injury, 0 = no effect, 100 = complete kill) at 31 g/ha ([2]; pre-emergence, Preemergence, 31 g ai/ha, scale 0 to 100 (0 no effect, 100 complete control)): 15% | Corn plant response rating (crop injury, 0 = no effect, 100 = complete kill) at 62 g/ha ([2]; pre-emergence, Preemergence, scale 0 to 100 (0 no effect, 100 complete control)): 25% | plant injury at 31 g/ha ([3]; post-emergence, Postemergence, scale 0 to 100 (0 no effect, 100 complete control), read-out: Oilseed Rape plant response rating): 100% | plant injury at 62 g/ha [3, 9]: 100% | plant injury at 125 g/ha [3, 9]: 100% | plant injury at 125 g/ha ([3]; pre-emergence, Preemergence, read-out: Plant response rating (scale 0 to 100), Oilseed Rape): 100% | plant injury at 16 g/ha ([3]; pre-emergence, Preemergence, 16 g ai/ha, scale 0 to 100 (0 no effect, 100 complete control), read-out: Plant response rating, Oilseed Rape): 95% | plant injury at 31 g/ha [3, 10]: 100% | plant injury at 62 g/ha [3, 10]: 100% | pest or weed control at 31 g/ha ([4]; post-emergence, Postemergence, scale 0 to 100 (0 no effect, 100 complete control), read-out: Ragweed plant response rating): 50% | pest or weed control at 62 g/ha [4, 11]: 55% | pest or weed control at 125 g/ha [4, 11]: 55% | pest or weed control at 125 g/ha ([4]; pre-emergence, Preemergence, read-out: Plant response rating (scale 0 to 100), Ragweed): 100% | pest or weed control at 16 g/ha ([4]; pre-emergence, Preemergence, 16 g ai/ha, scale 0 to 100 (0 no effect, 100 complete control), read-out: Plant response rating, Ragweed): 35% | pest or weed control at 31 g/ha [4, 12]: 45% | pest or weed control at 62 g/ha [4, 12]: 100% | pest or weed control at 16 g/ha [5, 13]: 35% | pest or weed control at 31 g/ha [5, 13]: 35% | pest or weed control at 62 g/ha [5, 14]: 40% | pest or weed control at 125 g/ha [5, 14]: 60% | pest or weed control at 125 g/ha ([5]; pre-emergence, Preemergence, read-out: Plant response rating (scale 0 to 100), Foxtail, Giant): 100% | pest or weed control at 16 g/ha [5, 15]: 100% | pest or weed control at 31 g/ha [5, 15]: 100% | pest or weed control at 62 g/ha [5, 15]: 100% | pest or weed control at 31 g/ha ([6]; post-emergence, Postemergence, scale 0 to 100 (0 no effect, 100 complete control), read-out: Morningglory plant response rating): 85% | pest or weed control at 62 g/ha [6, 16]: 85% | pest or weed control at 125 g/ha [6, 16]: 85% | pest or weed control at 125 g/ha ([6]; pre-emergence, Preemergence, read-out: Plant response rating (scale 0 to 100), Morningglory): 100% | pest or weed control at 16 g/ha ([6]; pre-emergence, Preemergence, 16 g ai/ha, scale 0 to 100 (0 no effect, 100 complete control), read-out: Plant response rating, Morningglory): 5% | pest or weed control at 31 g/ha [6, 17]: 70% | pest or weed control at 62 g/ha [6, 17]: 80% | Plant response rating, Galium [7, 18]: 100 | Plant response rating, Galium [7, 19]: 100 | Plant response rating, Blackgrass [8, 18]: 90 | Plant response rating, Blackgrass [8, 19]: 90
